Assay results taken from publication PMC6213309, “Antibacterial Activity and Mechanism of Action of Bovine Lactoferricin Derivatives with Symmetrical Amino Acid Sequences” (International Journal of Molecular Sciences, 2018).
Read-outs that look alike come from different tables or passages of the source. Ends that are not written are not given here.

Tests used:
HEK293 cells = assay: Cytotoxicity, MTT assay; format: cell-based, human; settings: 20–24 h
Protocol: The cytotoxicity of each peptide was determined in HEK293 cells using the thiazolylblue (MTT) assay as described by Zhu. Briefly, HEK293 cells were subcultured overnight in 96-well plates with 10% fetal calf serum and […] at 37 °C in 5% CO2. The cell suspension was then prepared. Two-fold serial dilutions of the peptides were prepared using DMEM. Cell suspensions were added to the plates and incubated for 20–24 h at 37 °C in a cell incubator. Next, 40 μL MTT solution was added to every well, and the plates were incubated for 4 h at 37 °C. Finally, 150 μL DMSO was added to each well, the plates were shaken for 10 min, and the absorbance was measured at 492 nm using a microplate reader.

E. coli ATCC 25922 = format: cell-based; settings: ATCC25922, 18 h
Protocol: (§2) The antimicrobial activity of the peptides were defined as the minimum inhibitory concentrations (MIC) according to the Clinical and Laboratory Standards Institute broth microdilution method as described previously [47]. Briefly, 50 μL two-fold serial dilutions of peptides (with final concentrations ranging from 0 μM to 256 μM) and 50 μL bacterial fluids diluted with MHB were added to 96-well microtiter plates. The plates were then incubated at 37 °C for 18 h.

E. coli UB 1005 = format: cell-based; settings: UB 1005, 18 h
Protocol: as §2

[1] = system: Salmonella typhimurium C 7731; format: cell-based; settings: murium C 7731, 18 h
Protocol: as §2

[2] = system: Salmonella typhimurium ATCC 14028; format: cell-based; settings: ATCC 14028, 18 h
Protocol: as §2

[3] = system: Salmonella pullorum C 7913; format: cell-based; settings: 18 h
[4] = system: Salmonella enterica subsp. CMCC 50071; settings: MHB, 37 °C, 18 h, peptides 0-256 μM, triplicate samples
Protocol: (§1) The antimicrobial activity of the peptides were defined as the minimum inhibitory concentrations (MIC) according to the Clinical and Laboratory Standards Institute broth microdilution method as described previously. Briefly, 50 μL two-fold serial dilutions of peptides (with final concentrations ranging from 0 μM to 256 μM) and 50 μL bacterial fluids diluted with MHB were added to 96-well microtiter plates. The plates were then incubated at 37 °C for 18 h.

S. aureus ATCC 29213 = format: cell-based
S. aureus ATCC 25923 = format: cell-based; settings: ATCC 25923, 18 h
[5] = system: S. epidermidis ATCC 12228; format: cell-based; settings: ATCC 12228, 18 h
Protocol: as §2

E. coli ATCC25922 [6] = settings: for MIC in the presence of Ca2+ / MIC in the presence of Fe3+ / MIC in the presence of K+ / MIC in the presence of Mg2+ / MIC in the presence of NH4+ / MIC in the presence of Na+ / MIC in the presence of Zn2+ / MIC, Control (enzymatic stability) / MIC, Control (salt stability) / MIC, Control (thermal stability): ATCC25922, 18 h; for MIC after Trypsin: peptide treated with 1 mg/mL trypsin
Protocol: as §1
We assessed the salt stability, thermal stability, and enzymatic stability of the AMPs. Briefly, E. coli ATCC25922 was selected as the test bacterium. The control group was untreated peptides. Different concentrations of salts (150 mM NaCl, 4.5 mM KCl, 6 μM NH4Cl, 1 mM MgCl2, […], 8 mM […], 2.5 mM CaCl2, and 4 mM FeCl3) were added to the incubation buffer to examine the effect of each salt on the antimicrobial activities of the peptides. AMPs were treated for 1 h at 100 °C to test the thermal stability. AMPs were also treated with trypsin, pepsin, papain, and protease K at a concentration of 1 mg/mL for 1 h at 37 °C to test enzyme stability.

[7] = system: all microbial strains in this table; assay: Geometric mean of MICs and therapeutic index; format: cell-based; settings: nine strains of Table 2
E. coli ATCC25922 [8] = assay: Flow cytometry, PI staining of membrane damage; format: cell-based; settings: 30 min, 37 °C
Protocol: Flow cytometry can quantify the amount of cells with membrane damage as reported previously. Briefly, E. coli ATCC 25922 grown to the logarithmic phase were centrifuged and re-suspended to an OD600 nm of 0.2 in PBS (pH 7.4). The suspensions were mixed with each peptide at 1/2× MIC or 1× MIC and incubated for 30 min at 37 °C with constant shaking (140 rpm). The cells were then harvested by centrifugation, washed three times with PBS, and incubated with Propidium Iodide (PI) at a final concentration of […] for 30 min at 4 °C. Finally, the unbound dye was removed by washing with an excess amount of PBS. The data were recorded using fluorescence-activated cell sorting (Becton Dickinson, Franklin Lakes NJ, USA).

Row | Compound | MIC (E. coli ATCC 25922) | MIC (E. coli UB 1005) | MIC [1] | MIC [2] | MIC [3] | MIC [4] | MIC (S. aureus ATCC 25923) | MIC [5] | MIC after Papain (E. coli ATCC25922 [6]; ATCC25922, 1 h) | MIC after Protease K (E. coli ATCC25922 [6]; ATCC25922, 1 h) | MIC following heating at 100 °C (E. coli ATCC25922 [6]; ATCC25922, 1 h) | MIC in the presence of Ca2+ (E. coli ATCC25922 [6]) | MIC in the presence of Fe3+ (E. coli ATCC25922 [6]) | MIC in the presence of K+ (E. coli ATCC25922 [6]) | MIC in the presence of Mg2+ (E. coli ATCC25922 [6]) | MIC in the presence of NH4+ (E. coli ATCC25922 [6]) | MIC in the presence of Na+ (E. coli ATCC25922 [6]) | MIC in the presence of Zn2+ (E. coli ATCC25922 [6]) | MIC, Control (enzymatic stability) (E. coli ATCC25922 [6]) | MIC, Control (salt stability) (E. coli ATCC25922 [6]) | also measured
1 | CC[C@H](C)[C@H](NC(=O)CN)C(=O)NCC(=O)N[C@@H](C)C(=O)N[C@H](C(=O)N[C@@H](CC(C)C)C(=O)N[C@@H](CCCCN)C(=O)N[C@H](C(=O)N[C@@H](CC(C)C)C(=O)N[C@H](C(=O)N[C@H](C(=O)NCC(=O)N[C@@H](CC(C)C)C(=O)N1CCC[C@H]1C(=O)N[C@@H](C)C(=O)N[C@@H](CC(C)C)C(=O)N[C@H](C(=O)N[C@@H](CO)C(=O)N[C@@H](Cc1c[nH]c2ccccc12)C(=O)N[C@H](C(=O)N[C@@H](CCCCN)C(=O)N[C@@H](CCCNC(=N)N)C(=O)N[C@@H](CCCCN)C(=O)N[C@@H](CCCNC(=N)N)C(=O)N[C@@H](CCC(N)=O)C(=O)N[C@@H](CCC(N)=O)C(N)=O)[C@@H](C)CC)[C@@H](C)CC)[C@@H](C)O)[C@@H](C)O)C(C)C)C(C)C [melittin] | – | – | – | – | – | – | – | – | – | – | – | – | – | – | – | – | – | – | – | – | cell viability (HEK293 cells; 4 μM): 41.95%; cell viability (HEK293 cells; 8 μM): 23.40%; cell viability (HEK293 cells; 16 μM): 0%
2 | FPRRWQWRRPF-NH2 [FP-PF] | 4 µM | 8 µM | 64 µM | 32 µM | 16 µM | 128 µM | 32 µM | 64 µM | 8 µM | 4 µM | 8 µM | 8 µM | 4 µM | 8 µM | 8 µM | 8 µM | 64 µM | 8 µM | 4 µM | 4 µM | MIC (S. aureus ATCC 29213; ATCC 29213, 18 h): 32 µM; MIC after Pepsin (E. coli ATCC25922 [6]; ATCC25922, 1 h): 16 µM; MIC, Control (thermal stability) (E. coli ATCC25922 [6]): 4 µM; MIC after Trypsin (E. coli ATCC25922 [6]; E. coli ATCC25922, 1 h, 37 °C): 128 µM
3 | FWRRWQWRRWF-NH2 [FW-WF] | 4 µM | 16 µM | 16 µM | 128 µM | 8 µM | >128 µM | 16 µM | 8 µM | 4 µM | 16 µM | 8 µM | 8 µM | 4 µM | 4 µM | 4 µM | 2 µM | 8 µM | 4 µM | 4 µM | 4 µM | MIC (S. aureus ATCC 29213; S. aureus ATCC 29213, MHB, 37 °C, 18 h, peptides 0-256 μM, triplicate samples): >128 µM; GM (geometric mean of MIC values from all microbial strains) [7]: 78.67 µM; MIC, Control (thermal stability) (E. coli ATCC25922 [6]): 4 µM; MIC after Pepsin (E. coli ATCC25922 [6]; E. coli ATCC25922, peptide treated with 1 mg/mL pepsin, 1 h, 37 °C): >128 µM; MIC after Trypsin (E. coli ATCC25922 [6]; E. coli ATCC25922, 1 h, 37 °C): >128 µM; survival rates of the cells (no PI signal) (E. coli ATCC25922 [8]; 1/2× MIC): 82.5%; survival rates of the cells (no PI signal) (E. coli ATCC25922 [8]; 1× MIC): 58.7%
